Assay results taken from US8921344B2, “Formulations and uses of 2-hydroxy-5-phenylazobenzoic acid derivatives” (Salix Pharmaceuticals, Inc., priority 2006, dated 2014).

What was measured:
clinical = test: clinical; design: species or system human; details: in vivo; for AUClast / AUC(0-t) / Tmax: male, po; for AUClast / AUC(0-t) / AUClast ratio Treatment B/A / Cmax ratio Treatment B/A / Tmax: human; for AUC(0-t): AUClast
Source text: Study periods were separated by a minimum of 4 days. […] The standard pharmacokinetic parameters are shown for both dosing conditions in Table 1.
This delay is indicative of a slower transit of the drug through the GI tract.

[1] = cited from earlier work
[2] = cited from earlier work; remark: listed apart in the source
[3] = compared with 5-ASA; cited from earlier work

Structure (SMILES)	Change of systemic level as measured by Cmax (clinical)	AUClast (clinical) [ng·h/mL]	AUC(0-t) (clinical) [ng·h/mL]	AUClast ratio Treatment B/A (clinical)	Cmax ratio Treatment B/A (clinical)	also measured
O=C(O)CCNC(=O)c1ccc(/N=N/c2ccc(O)c(C(=O)O)c2)cc1 [Disodium balsalazide]	–	–	–	–	–	Water solubility [1]: highly water-soluble
O=C(O)CCNC(=O)c1ccc(/N=N/c2ccc(O)c(C(=O)O)c2)cc1 [Balsalazide, reference compound]	–	–	–	1.146	0.791	Part of the prodrug that reaches the colon ([2]; taken orally): 99%
Nc1ccc(C(=O)NCCC(=O)O)cc1 [4-ABA, 4-amino benzoyl-β-alanine]	–	302.0 ± 262.07	288 ± 158	–	–	Absorption of the released carrier component ([2]; released in the colon, largely eliminated in the feces): poorly absorbed; Tmax (clinical): 24.0 ± 8.51 h; Tmax (clinical; Tmax): 12.7 ± 9.46 h

More lines, main results first:

Change of systemic level as measured by Cmax (clinical)	AUClast (clinical) [ng·h/mL]	AUC(0-t) (clinical) [ng·h/mL]	Structure (SMILES)	AUClast ratio Treatment B/A (clinical)	Cmax ratio Treatment B/A (clinical)	also measured
significant decreases	2096.4 ± 2577.31	2590 ± 1460	Nc1ccc(O)c(C(=O)O)c1 [5-ASA, 5-aminosalicylic acid, reference compound]	–	–	Change of systemic level as measured by AUClast (clinical): significant decrease
significant decreases	–	–	CC(=O)Nc1ccc(O)c(C(=O)O)c1 [N-Ac-5-ASA, N-acetyl-5-ASA]	0.819	0.639	Part of the oral dose measured in the blood / systemically absorbed ([2]; after oral balsalazide): ~12 % of the oral dose; Anti-inflammatory activity in the colon [3]: lower anti-inflammatory activity
